According to paper PMC6800809 (ChemMedChem, 2019):
Converted amounts (≈) assume the structure as drawn.

Assays:
[1] = HepG2 cytotoxicity; settings: human, HepG2 cells
[2] = system: M. tuberculosis H37Rv; experiment: MIC determination against M. tuberculosis H37Rv in liquid medium; format: cell-based; settings: Mycobacterium tuberculosis, 120 h, read-out: H37Rv MIC90
[3] = system: HepG2 cells; experiment: HepG2 cytotoxicity
[4] = system: RAW 264.7 cells
[5] = system: MbtA; settings: 44.2 μM MbtA, ligand 0.75 mM

SMILES | IC50 at 2 days [1] [µM] | MIC90 [2] [µM] | HepG2 cytotoxicity, IC50 towards cells grown in both media ([3]; glucose and galactose media) | Ratio (Glu/Gal) ([3]; ratio of HepG2 IC50 in glucose to galactose medium (mitochondrial toxicity)) | IC50 [4] [µM] | Response in STD and Water-LOGSY experiments [5]
CO[C@H]1/C=C/O[C@@]2(C)Oc3c(C)c(O)c4c(O)c(c(/C=N/N5CCN(C)CC5)c(O)c4c3C2=O)NC(=O)/C(C)=C\C=C\[C@H](C)[C@H](O)[C@@H](C)[C@@H](O)[C@@H](C)[C@H](OC(C)=O)[C@@H]1C [Rifampicin, reference compound] | > 100 | 0.1 (≈ 0.0823 µg/mL) | – | – | – | –
O=[N+]([O-])c1cc(C(F)(F)F)ccc1NCCc1c[nH]c2ccc(O)cc12 [Compound 5, 5-hydroxy-indol-3-ethylamino-(2-nitro-4-trifluoromethyl)benzene] | – | – | relatively low cytotoxicity | 1.2 | 29 | positive responses
